This note sets out measurements from patent US9278131B2, “Process for lowering the viscosity of highly concentrated protein solutions” (ADOCIA, priority 2012, dated 2016).

What all share (type): physicochemical
The subject of series [1] is trastuzumab. The series is described as follows: viscosity of highly concentrated trastuzumab formulation, cone/plate rheometer at 25° C. (example 7). The conditions noted are these: Table VII; trastuzumab 200 mg/mL, 150 mM additive, pH 6 ± 0.2, 25° C. The procedure: For this example, two monoclonal antibody formulations, i.e. infliximab and trastuzumab (an IgG1/κ sold under the name Herceptin® by Genentech) were concentrated by ultrafiltration on Amicon® Ultra-50 centrifugal filtration units with a cutoff threshold of 50 kDa. The protein concentration of each concentrated solution was measured by UV spectroscopy (absorbance at 280 nm) after gravimetric dilution of the samples.
Once reconstituted, the infliximab and trastuzumab formulations were concentrated, respectively, to 212 mg/mL and 277 mg/mL.
The effect of RVs 2 and 11 on the viscosity of these two highly concentrated therapeutic protein formulations was then evaluated comparatively to that of Arg and NaCl. To do this, the viscosity was measured using a cone/plate rheometer (TA Instrument, AR 2000 Ex, geometry of diameter 20 mm, cone of 0.5131°, solvent trap filled with water) at a temperature of 25° C. and in flow sweep mode with shear rates of between 5000 and 50 s^−1 (3 points per decade—steady-state sensing). […]

Series [2] relates to infliximab. The series is described as follows: viscosity of highly concentrated infliximab solution, cone/plate rheometer at 21° C. The conditions noted are these: for % viscosity reduction relative to the control “protein alone”: infliximab 107 mg/mL; for % viscosity reduction relative to the control infliximab solution: Table V. From the text: For this example, three solutions of monoclonal antibodies, i.e. a solution of bevacizumab (an IgG1 sold under the name Avastin® by Genentech/Hoffmann La Roche), a solution of infliximab (an IgG1/K sold under the name Remicade® by Schering-Plough), a solution of rituximab (an IgG1/K sold under the name mAbThera® by Hoffmann La Roche) and a solution of fusion protein, i.e. a solution of abatacept (IgG1-CTLA4 sold under the name Orencia® by Bristol-Meyers Squibb), were concentrated by ultrafiltration on Amicon® Ultra-15 filtration units with a cutoff threshold of 50 kDa.
The protein concentration of each concentrated solution was measured by UV spectroscopy (absorbance at 280 nm) after gravimetric dilution of the samples.
The effect of RVs 2 and 9 on the viscosity of these four highly concentrated therapeutic protein solutions was then evaluated comparatively with that of Arg and NaCl.
The samples thus prepared were stored at room temperature and were analyzed using the rheometer within 24 hours of their preparation.
The pH of these formulations is the same as that of the commercial formulation of the corresponding therapeutic protein.
In this study, the highly concentrated infliximab and rituximab solutions used are the same as those which were prepared and used previously. […] The pH of these formulations is the same as that of the corresponding therapeutic protein formulation, i.e. 7.2±0.2 for infliximab, and 6.5±0.2 for rituximab.
The highly concentrated infliximab solution used is the same as that which was prepared and used previously. The “protein+RV” formulations were prepared in the presence of concentrations increasing from 0 to 200 mM of Arg or RV 9. The pH of these formulations is the same as that of the commercial infliximab formulation, i.e. 7.2±0.2.
The highly concentrated infliximab solution used is the same as that which was prepared and used previously.
The pH of these formulations is the same as that of the commercial infliximab formulation, i.e. 7.2±0.2.
The highly concentrated infliximab solution used was prepared in the same manner as that used previously. […] The pH of these formulations is the same as that of the commercial infliximab formulation, i.e. 7.2±0.2.

In series [3] the test system is infliximab. The series is described as follows: viscosity of highly concentrated infliximab formulation, cone/plate rheometer at 25° C. (example 7). The conditions noted are these: Table VII; infliximab 125 mg/mL, 150 mM additive, pH 7.2 ± 0.2, 25° C. As for the experimental part:
For this example, two monoclonal antibody formulations, i.e. infliximab and trastuzumab (an IgG1/κ sold under the name Herceptin® by Genentech) were concentrated by ultrafiltration on Amicon® Ultra-50 centrifugal filtration units with a cutoff threshold of 50 kDa. The protein concentration of each concentrated solution was measured by UV spectroscopy (absorbance at 280 nm) after gravimetric dilution of the samples. […]
The effect of RVs 2 and 11 on the viscosity of these two highly concentrated therapeutic protein formulations was then evaluated comparatively to that of Arg and NaCl. To do this, the viscosity was measured using a cone/plate rheometer (TA Instrument, AR 2000 Ex, geometry of diameter 20 mm, cone of 0.5131°, solvent trap filled with water) at a temperature of 25° C. and in flow sweep mode with shear rates of between 5000 and 50 s^−1 (3 points per decade—steady-state sensing).
For this example, the “protein+RV” formulations were prepared by mixing a solution of RV at about 1 M obtained in example 1 with one of the concentrated infliximab and trastuzumab formulations prepared previously and the corresponding buffer so as to reach a final RV concentration of 150 mM and a final protein concentration of 125 mg/mL for infliximab and 200 mg/mL for trastuzumab. […]

The structures appear in SMILES notation.

On to `Cl.N=C(N)NCCC[C@H](N)C(=O)O` [Arg, L-arginine hydrochloride salt], for which the “% of viscosity reduction relative to the control “protein alone”” value in series [1] is recorded as 56%; in series [3] it was 11%. In addition, the “% viscosity reduction relative to the control “protein alone”” value in series [2] (Table I, 150 mM additive, pH 7.2 ± 0.2, 21° C.) came out at 32%; in series [2] (Table II, 150 mM additive, pH 7.2 ± 0.2), 32%; in series [2] (Table IV, additive 25 mM, pH 7.2 ± 0.2), 9%; in series [2] (Table IV, additive 50 mM, pH 7.2 ± 0.2) it was 13%; in series [2] (Table IV, additive 100 mM, pH 7.2 ± 0.2), 9%; in series [2] (Table IV, additive 150 mM, pH 7.2 ± 0.2), 31%. In series [2] (Table IV, additive 200 mM, pH 7.2 ± 0.2), the “% viscosity reduction relative to the control “protein alone”” value worked out at 34%. In addition, the “% viscosity reduction relative to the control infliximab solution” value is reported as 25% in series [2] (infliximab 80 mg/mL, additive at 150 mM, pH 7.2 ± 0.2); 30% in series [2] (infliximab 90 mg/mL, additive at 150 mM, pH 7.2 ± 0.2); 39% in series [2] (infliximab 100 mg/mL, additive at 150 mM, pH 7.2 ± 0.2); 22% in series [2] (infliximab 110 mg/mL, additive at 150 mM, pH 7.2 ± 0.2). In series [2] (average over infliximab 80-110 mg/mL, additive at 150 mM), the “viscosity lowering on average, irrespective of the infliximab concentration” value is “about 29%”.
